# In patent US20160287524A1, “PHARMACEUTICAL COMPOSITIONS COMPRISING AN ACTIVE AGENT” (GALENICUM HEALTH S.L., priority 2013, published 2016):
# Assay: Dissolving the active agent in the capsule fill (glycerol monocaprylocaprate, BHT)
# Format: physicochemical
# Settings: 20-23° C., stirred
# Text: Another advantage of the process as herein disclosed is that it is highly reproducible and robust independently of the water content of the active agent. […] However, when the active agent has a water content higher than 0.05% measured by Karl Fischer titration, the components of the fill are completely dissolved at the same range of temperatures. Furthermore, the inventors have been able to establish an optimum range of working temperatures able to obtain a fill solution completely dissolved homogeneously with active agents with a water content higher than 0.05% w/w.
# • Glycerol monocaprylocaprate was added to a stainless steel tank equipped with cooling jacket to keep it at a temperature of 20-23° C. It was stirred until completely dissolved. • Butylhydroxytoluene (BHT) was added to the tank and stirred until completely dissolved. • Finally dutasteride anhydrous was added to the tank. • The resulting solution was kept at a range of temperature of 20-23° C. […] Water content of the active agent and the range of temperatures were studied to avoid dissolution problems.
compound,measurement,value
C[C@]12C=CC(=O)N[C@@H]1CC[C@@H]1[C@@H]2CC[C@]2(C)[C@@H](C(=O)Nc3cc(C(F)(F)F)ccc3C(F)(F)F)CC[C@@H]12 [dutasteride anhydrous],dissolution of active agent in the fill solution,not possible to obtain a completely dissolved solution
